Laboratory results from ChEMBL document CHEMBL1128882, “Novel lignan derivatives as selective inhibitors of DNA topoisomerase II” (1995).
Active and inactive are the calls of the source. No cut-off for these calls is given here.

Key:
[1] = biological target: DNA topoisomerase 2-beta (Homo sapiens) (UniProt Q02880); experiment: In vitro inhibition of DNA topoisomerase II activity (DNA unknotting) at a concentration of 50 uM
[2] = biological target: T1, DNA topoisomerase 1 (Homo sapiens) (UniProt P11387); experiment: In vitro inhibition of DNA topoisomerase I activity (ATP-independent DNA relaxation) at a concentration of 50 uM
T1 sequence (whole entry): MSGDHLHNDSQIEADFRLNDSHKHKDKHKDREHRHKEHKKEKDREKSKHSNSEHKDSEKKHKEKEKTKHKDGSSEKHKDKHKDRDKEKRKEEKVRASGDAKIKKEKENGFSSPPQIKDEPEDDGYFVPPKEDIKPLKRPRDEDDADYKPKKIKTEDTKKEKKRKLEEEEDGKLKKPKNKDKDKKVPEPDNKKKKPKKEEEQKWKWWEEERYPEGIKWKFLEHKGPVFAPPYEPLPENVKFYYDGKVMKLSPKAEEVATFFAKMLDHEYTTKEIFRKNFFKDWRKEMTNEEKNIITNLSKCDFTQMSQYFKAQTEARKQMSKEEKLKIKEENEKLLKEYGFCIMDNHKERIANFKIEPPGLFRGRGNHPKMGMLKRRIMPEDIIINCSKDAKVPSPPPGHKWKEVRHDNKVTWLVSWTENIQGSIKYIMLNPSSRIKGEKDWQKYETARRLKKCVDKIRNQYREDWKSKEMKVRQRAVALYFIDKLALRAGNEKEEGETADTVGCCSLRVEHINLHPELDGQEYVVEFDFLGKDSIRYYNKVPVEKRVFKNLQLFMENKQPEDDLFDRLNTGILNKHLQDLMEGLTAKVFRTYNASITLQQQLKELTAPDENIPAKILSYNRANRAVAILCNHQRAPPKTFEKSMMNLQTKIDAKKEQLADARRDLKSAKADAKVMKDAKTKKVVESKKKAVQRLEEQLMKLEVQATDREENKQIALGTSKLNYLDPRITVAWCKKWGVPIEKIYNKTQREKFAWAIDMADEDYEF

[3] = biological target: T1, DNA topoisomerase 1 (Homo sapiens); experiment: In vitro inhibition of DNA topoisomerase I activity (ATP-independent DNA relaxation) at a concentration of 50 uM; no activity
KB [4] = experiment: In vitro topoisomerase II -DNA complex formation at a concentration of 50 uM; type: functional, Homo sapiens
KB [5] = experiment: In vitro cellular protein-DNA complex formation at a concentration of 50 uM; type: functional, Homo sapiens
KB [6] = experiment: In vitro cellular protein-DNA complex formation at a concentration of 50 uM; no activity; type: functional, cell-based; details: Homo sapiens
KB [7] = experiment: In vitro topoisomerase II -DNA complex formation at a concentration of 50 uM; no activity; type: functional, cell-based; details: Homo sapiens
KB [8] = experiment: In vitro topoisomerase II -DNA complex formation at a concentration of 10 uM; no activity; type: functional, cell-based; details: Homo sapiens
KB [9] = experiment: In vitro topoisomerase II -DNA complex formation at a concentration of 100 uM; no activity; type: functional, cell-based; details: Homo sapiens
KB [10] = experiment: In vitro topoisomerase II -DNA complex formation at a concentration of 1 uM; no activity; type: functional, cell-based; details: Homo sapiens

DNA topoisomerase 2-beta (Homo sapiens), sequence (Q02880 whole entry): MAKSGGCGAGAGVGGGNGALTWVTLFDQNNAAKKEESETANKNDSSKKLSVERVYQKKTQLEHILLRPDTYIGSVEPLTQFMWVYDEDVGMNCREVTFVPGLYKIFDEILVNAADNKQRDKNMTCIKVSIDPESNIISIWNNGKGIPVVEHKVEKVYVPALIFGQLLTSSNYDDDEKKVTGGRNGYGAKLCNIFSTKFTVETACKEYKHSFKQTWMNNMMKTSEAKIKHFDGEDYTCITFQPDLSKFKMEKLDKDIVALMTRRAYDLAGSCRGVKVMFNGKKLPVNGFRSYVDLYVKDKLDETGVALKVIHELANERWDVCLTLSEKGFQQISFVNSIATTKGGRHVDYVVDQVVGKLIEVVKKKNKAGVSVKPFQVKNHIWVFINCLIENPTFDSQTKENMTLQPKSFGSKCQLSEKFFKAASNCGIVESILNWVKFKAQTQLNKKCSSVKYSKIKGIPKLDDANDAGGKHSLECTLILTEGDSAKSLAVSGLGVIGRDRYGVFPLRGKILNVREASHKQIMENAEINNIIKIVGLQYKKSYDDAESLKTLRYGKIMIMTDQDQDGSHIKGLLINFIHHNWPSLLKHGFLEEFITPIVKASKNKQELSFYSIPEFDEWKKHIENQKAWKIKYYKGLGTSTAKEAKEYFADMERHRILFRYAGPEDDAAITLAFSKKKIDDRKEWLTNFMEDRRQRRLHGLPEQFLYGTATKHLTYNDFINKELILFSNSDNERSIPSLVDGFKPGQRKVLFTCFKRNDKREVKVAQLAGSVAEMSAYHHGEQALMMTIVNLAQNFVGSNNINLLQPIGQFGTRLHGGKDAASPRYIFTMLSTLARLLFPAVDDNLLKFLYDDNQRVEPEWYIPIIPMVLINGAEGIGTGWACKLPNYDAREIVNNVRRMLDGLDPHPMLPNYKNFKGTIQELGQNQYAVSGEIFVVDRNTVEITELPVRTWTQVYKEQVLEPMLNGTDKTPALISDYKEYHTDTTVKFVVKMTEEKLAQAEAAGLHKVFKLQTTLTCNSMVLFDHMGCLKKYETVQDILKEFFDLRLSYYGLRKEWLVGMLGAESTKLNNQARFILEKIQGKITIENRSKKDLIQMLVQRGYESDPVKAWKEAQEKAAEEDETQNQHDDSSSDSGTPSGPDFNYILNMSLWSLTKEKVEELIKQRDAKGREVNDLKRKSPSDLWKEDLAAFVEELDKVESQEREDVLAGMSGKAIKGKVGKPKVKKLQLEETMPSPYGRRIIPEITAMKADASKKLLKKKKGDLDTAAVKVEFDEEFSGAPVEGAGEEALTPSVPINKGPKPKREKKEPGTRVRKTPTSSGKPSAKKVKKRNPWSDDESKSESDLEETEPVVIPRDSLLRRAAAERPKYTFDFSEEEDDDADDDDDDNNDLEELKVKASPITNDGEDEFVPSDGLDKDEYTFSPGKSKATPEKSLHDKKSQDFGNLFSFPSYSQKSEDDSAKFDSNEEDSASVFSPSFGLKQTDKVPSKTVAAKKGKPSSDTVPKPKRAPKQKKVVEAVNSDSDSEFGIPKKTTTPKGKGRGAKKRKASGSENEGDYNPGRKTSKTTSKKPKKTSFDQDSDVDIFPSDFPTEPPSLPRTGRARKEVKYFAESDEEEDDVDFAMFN

Row | SMILES | inhibition [1] | inhibition [2] | inhibition [3] | Complex formation (KB [7]) | Complex formation (KB [8]) | Complex formation (KB [9]) | Complex formation (KB [10]) | Complex formation (KB [4]) | Complex formation (KB [5]) | Complex formation (KB [6])
1 | COc1cc([C@@H]2c3cc4c(cc3[C@@H](O[C@@H]3O[C@@H]5CO[C@@H](C)O[C@H]5[C@H](O)[C@H]3O)[C@H]3COC(=O)[C@H]23)OCO4)cc(OC)c1O [ETOPOSIDE] |  |  | inactive |  |  |  |  | 100% | 100% | 
2 | O=C(O[C@H](Cc1ccc(O)c(O)c1)C(=O)O)C1=Cc2cc(O)c(O)cc2[C@H](c2ccc(O)c(O)c2)[C@H]1C(=O)O[C@H](Cc1ccc(O)c(O)c1)C(=O)O | 100% | 100% |  | No activity |  |  |  |  |  | No activity
3 | O=C(O[C@H](Cc1ccc(O)c(O)c1)C(=O)O)C1=Cc2cc(O)c(O)cc2[C@@H](c2ccc(O)c(O)c2)[C@@H]1C(=O)O[C@H](Cc1ccc(O)c(O)c1)C(=O)O | 100% | 100% |  | No activity |  |  |  |  |  | No activity
4 | O=C1OC(c2ccc(O)c(O)c2)C2C(=O)OC(c3ccc(O)c(O)c3)C12 (stereo not drawn) | 100% | 100% |  |  |  |  |  |  |  | 

Further lines, with some results ahead:

Row | inhibition [1] | inhibition [2] | inhibition [3] | Complex formation (KB [7]) | Complex formation (KB [8]) | Complex formation (KB [9]) | Complex formation (KB [10]) | SMILES | Complex formation (KB [4]) | Complex formation (KB [5]) | Complex formation (KB [6])
5 | 100% | 100% |  |  |  |  |  | O=C(O)C1=Cc2cc(O)c(O)cc2[C@@H](c2ccc(O)c(O)c2)[C@@H]1C(=O)O |  |  | 
6 | 100% |  | inactive | No activity |  |  |  | COC(=O)C1=Cc2cc(O)c(O)cc2[C@@H](c2ccc(O)c(O)c2)[C@@H]1C(=O)OC |  |  | No activity
7 | 100% |  | inactive | No activity | No activity | No activity | No activity | O=C(O[C@@H]1C[C@](O)(C(=O)O)C[C@@H](O)[C@H]1O)C1=Cc2cc(O)c(O)cc2[C@@H](c2ccc(O)c(O)c2)[C@@H]1C(=O)O[C@@H]1C[C@](O)(C(=O)O)C[C@@H](O)[C@H]1O |  |  | No activity
8 | 100% |  | inactive | No activity | No activity | No activity | No activity | O=C(O[C@@H]1C[C@](O)(C(=O)O)C[C@@H](O)[C@H]1O)C1=Cc2cc(O)c(O)cc2[C@H](c2ccc(O)c(O)c2)[C@H]1C(=O)O[C@@H]1C[C@](O)(C(=O)O)C[C@@H](O)[C@H]1O |  |  | No activity
